In patent EP4703354A1, “COMPOUND AS CCR6 ANTAGONIST, AND PHARMACEUTICAL COMPOSITION AND USE THEREOF” (Wuhan Createrna Science and Technology Co.,Ltd., priority 2023, dated 2024):
Where two headings read alike, the source gives them in different places.

Legend:
human CCR6 = molecular target: T1, human CCR6 (Homo sapiens, UniProt P51684); test: human CCR6 calcium flux activity (FLIPR, HEK293 cells stably expressing human CCR6, CCL20 stimulation); format: cell-based; details: HEK293 cells stably expressing human CCR6, EC80 human MIP-3 alpha/CCL20; read-out: CCR6 inhibitory activity, IC50
T1 construct: expressed in transfected cells; host or cells: HEK293
T1 sequence (P51684 1-374): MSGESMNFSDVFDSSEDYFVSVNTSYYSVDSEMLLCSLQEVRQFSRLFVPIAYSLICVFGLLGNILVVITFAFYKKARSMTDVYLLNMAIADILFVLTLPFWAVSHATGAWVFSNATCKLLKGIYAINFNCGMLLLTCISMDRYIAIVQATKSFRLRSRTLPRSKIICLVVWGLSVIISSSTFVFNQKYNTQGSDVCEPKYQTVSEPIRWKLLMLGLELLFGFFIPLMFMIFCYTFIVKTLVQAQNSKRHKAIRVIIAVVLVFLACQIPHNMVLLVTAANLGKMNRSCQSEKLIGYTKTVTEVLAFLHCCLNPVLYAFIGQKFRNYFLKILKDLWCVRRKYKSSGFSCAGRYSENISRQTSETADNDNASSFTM
In short: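 Read-out is the RFUMax−RFUMin calcium signal (494/516 nm, 90 s) after EC80 CCL20 addition, fitted four-parameter for IC50. Before agonist, Fluo-4 Direct-loaded cells sat with compound 50 min at 37 °C plus 10 min at room temperature.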

[1] = in vitro liver microsome metabolic stability, human; format: in vitro ADME; details: Human liver microsomes, 37°C
In short: (§1)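 Test compound at 1 µM final (100 µM working solution diluted 1:100) incubated at 37°C with liver microsomes in pH 7.4 phosphate buffer with NADP/G6P/G6PDH/MgCl2 regenerating system; sampled 0–30 min, LC-MS/MS vs internal standard. T1/2 = 0.693/k from remaining-fraction decay.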

[2] = in vitro liver microsome metabolic stability, rat; format: in vitro ADME; details: Rat liver microsomes, 37°C
In short: as §1

[3] = in vitro liver microsome metabolic stability, mouse; format: in vitro ADME; details: Mouse liver microsomes, 37°C
Procedure: Preparation of working solutions for test compounds and standards: An appropriate amount of the compound was accurately weighed and dissolved in a corresponding volume of suitable solvent to prepare 1 mM stock solutions of the test compounds and standards. The stock solutions were then diluted with appropriate solvent to obtain 100 µM working solutions of the test compounds, ensuring that the DMSO content in the working solutions remained below 10%.
The internal standard compound testosterone (or tolbutamide) and its corresponding solvent, internal standard concentration (200 ng/mL), were selected based on the properties of the test compound.
• Solution A: 0.1 mol/L K2HPO4 (2.28 g K2HPO4·3H2O was dissolved in 100 mL of double-distilled water); • Solution B: 0.1 mol/L KH2PO4 (1.36 g KH2PO4 was dissolved in 100 mL of double-distilled water); • 80.2 mL of Solution A and 19.8 mL of Solution B were mixed thoroughly, and the pH was adjusted to 7.4.
37.5 mg of glycine was weighed, dissolved in 100 mL of ultrapure water, and adjusted to pH 8.0 with NaOH.
1.25 mg of glucose-6-phosphate dehydrogenase (400 U/mg) was weighed (the specific amount weighed was calculated based on the activity of the purchased glucose-6-phosphate dehydrogenase), dissolved in 1 mL of glycine buffer to a concentration of 500 U/mL, aliquoted into 20 µL per tube, and stored at -20°C for future use.
7.83 mg of NADP, 0.06 mL of D-glucose-6-phosphate (260 mg/mL), and 10.17 mg of MgCl2·6H2O were precisely weighed.
The mixture was dissolved in 1 mL of pure water. The cofactor ratio composition: NADP 10 mM, D-glucose-6-phosphate 60 mM, MgCl2·6H2O 50 mM.
The reaction system (taking a 500 µL system as an example) was composed of the following solution ratios: 416.5 µL phosphate buffer, 5 µL compound working solution, 25 µL liver microsomes, 3.5 µL glucose-6-phosphate dehydrogenase, and 50 µL cofactor solution. The total incubation volume could be adjusted according to experimental requirements.
416.5 µL of phosphate buffer was taken, 25 µL of liver microsomes, 3.5 µL of glucose-6-phosphate dehydrogenase, and 50 µL of cofactor solution were added, vortexed twice to mix, and preincubated in a 37°C water bath for 5 minutes. Then, 5 µL of the test compound working solution was added, vortexed twice to mix, each time for 2-3 seconds, and placed in a 37°C water bath to initiate the reaction, with two parallel samples set. At 0.5 min, 1 min, 2 min, 5 min, 15 min, and 30 min after the reaction, 50 µL of the mixture was taken and added to centrifuge tubes containing 200 µL of 0°C pre-cooled internal standard working solution to terminate the reaction, vortexed for 1 minute to mix, and centrifuged at 13,000 rpm for 10 minutes in a 4°C pre-cooled high-speed centrifuge. The supernatant was collected for analysis. After the compound was added and vortex-mixed, 50 µL of the mixture was rapidly transferred to a centrifuge tube containing 200 µL of a pre-cooled (0°C) internal standard working solution to terminate the reaction, vortex-mixed for 1 minute, and used as the relative zero-point sample (relative to the standard group). The sample was then placed into a 37°C water bath to initiate the reaction, and timing was started.
The sample analysis of the test compound was performed using the liquid chromatography-tandem mass spectrometry (LCMS/MS) method. The semi-quantitative determination was performed using the ratio of the analyte peak area to the internal standard peak area. The retention times of the analyte and internal standard, chromatogram acquisition, and chromatogram integration were processed using Analyst software.
The in vitro elimination rate constant k of the test compound and the control compound was determined by converting the ratio of the peak area of the test compound to the internal standard into the remaining rate, and T1/2 was then calculated according to the following formula. T1/2 = (Ln2)/(k) = (0.693)/(k) [formula] Table 3. […]

[4] = in vitro liver microsome metabolic stability, beagle dog; format: in vitro ADME; details: Beagle dog liver microsomes, 37°C
In short: as §1

[5] = in vivo pharmacokinetic study in SD rats; details: rat; for bioavailability: 1 mg/kg PO vs 1 mg/kg IV, read-out: Oral bioavailability F (%); for AUC(0-t) / Cmax / half-life: 1 mg/kg
In short: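 Male SD rats (180-200 g), 3 per route: single fasted oral gavage in 1% Tween 80 or tail-vein IV bolus in 50% PEG400. Orbital blood into EDTA-K2 sampled to 8 h; plasma analysed and PK parameters derived by non-compartmental analysis.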

Compound	IC50 (human CCR6) [nM]	Liver microsome T1-2 (min) Human [1] [min]	Liver microsome T1-2 (min) Rat [2] [min]	Liver microsome T1-2 (min) Mouse [3] [min]	Liver microsome T1-2 (min) Beagle dog [4] [min]	bioavailability ([5]; in vivo) [%]	AUC(0-t) ([5]; in vivo, IV) [ng·h/mL]	Cmax ([5]; in vivo, IV) [ng/mL]	half-life ([5]; in vivo, IV) [min]	AUC(0-t) ([5]; in vivo, PO) [ng·h/mL]	Cmax ([5]; in vivo, PO) [ng/mL]	half-life ([5]; in vivo, PO) [min]	bioavailability ([5]; male, plasma) [%]	AUC(0-t) ([5]; male, plasma, IV) [ng·h/mL]	Cmax ([5]; male, plasma, IV) [ng/mL]	AUC(0-t) ([5]; male, plasma, PO) [ng·h/mL]	Cmax ([5]; male, plasma, PO) [ng/mL]
CN(C)C(=O)c1nccc(Nc2c(NC(c3ncccn3)C3(C)CCCC3)c(=O)c2=O)c1O (racemic) [compound 017]	10	1176.24	324.15	1273.80	848.60	–	–	–	–	–	–	–	–	–	–	–	–
CN(C)C(=O)c1nccc(Nc2c(N[C@@H](c3cccc(F)n3)C3(C)CCCC3)c(=O)c2=O)c1O [compound 002, (R)-4-((2-(((6-fluoropyridin-2-yl)(1-methylcyclopentyl)methyl)amino)-3,4-dioxocyclobut-1-en-1-yl)amino)-3-hydroxy-N,N-dimethylpicolinamide]	7	281.53	85.28	1127.82	202.32	–	–	–	–	–	–	–	–	–	–	–	–
CN(C)C(=O)c1nccc(Nc2c(N[C@@H](c3ccccn3)C3(C)CCCC3)c(=O)c2=O)c1O [compound 004, (R)-3-hydroxy-N,N-dimethyl-4-((2-(((1-methylcyclopentyl)(pyridin-2-yl)methyl)amino)-3,4-dioxocyclobut-1-en-1-yl)amino)picolinamide]	12.3	672.88	90.26	6368.42	320.98	–	–	–	–	–	–	–	–	–	–	–	–
CN(C)C(=O)c1nccc(Nc2c(N[C@@H](c3cc(F)cc(F)n3)C3(C)CCCC3)c(=O)c2=O)c1O [compound 022, (R)-4-((2-(((4,6-difluoropyridin-2-yl)(1-methylcyclopentyl)methyl)amino)-3,4-dioxocyclobut-1-en-1-yl)amino)-3-hydroxy-N,N-dimethylpicolinamide]	7.4	271.15	116.86	1925.01	271.86	–	–	–	–	–	–	–	–	–	–	–	–

Further lines, results first:

IC50 (human CCR6) [nM]	Liver microsome T1-2 (min) Human [1] [min]	Liver microsome T1-2 (min) Rat [2] [min]	Liver microsome T1-2 (min) Mouse [3] [min]	Liver microsome T1-2 (min) Beagle dog [4] [min]	bioavailability ([5]; in vivo) [%]	AUC(0-t) ([5]; in vivo, IV) [ng·h/mL]	Cmax ([5]; in vivo, IV) [ng/mL]	half-life ([5]; in vivo, IV) [min]	AUC(0-t) ([5]; in vivo, PO) [ng·h/mL]	Cmax ([5]; in vivo, PO) [ng/mL]	half-life ([5]; in vivo, PO) [min]	bioavailability ([5]; male, plasma) [%]	AUC(0-t) ([5]; male, plasma, IV) [ng·h/mL]	Cmax ([5]; male, plasma, IV) [ng/mL]	AUC(0-t) ([5]; male, plasma, PO) [ng·h/mL]	Cmax ([5]; male, plasma, PO) [ng/mL]	Compound
32.9	1048.05	801.17	228.33	1250.74	–	–	–	–	–	–	–	–	–	–	–	–	CN(C)C(=O)c1nccc(Nc2c(NC(c3nc(F)ccc3F)C3(C)CC(F)(F)CO3)c(=O)c2=O)c1O (stereo not shown) [compound 062, 4-((2-(((4,4-difluoro-2-methyltetrahydrofuran-2-yl)(3,6-difluoropyridin-2-yl)methyl)amino)-3,4-dioxocyclobut-1-en-1-yl)amino)-3-hydroxy-N,N-dimethylpicolinamide]
3.9	197.68	39.70	≥120	200.21	–	–	–	–	–	–	–	–	–	–	–	–	Cc1cc(F)cnc1[C@H](Nc1c(Nc2ccnc(C(=O)N(C)C)c2O)c(=O)c1=O)C1(C)CCCC1 [compound 065, (R)-4-((2-(((5-fluoro-3-methylpyridin-2-yl)(1-methylcyclopentyl)methyl)amino)-3,4-dioxocyclobut-1-en-1-yl)amino)-3-hydroxy-N,N-dimethylpicolinamide]
38	226.52	56.96	54.79	204.66	–	–	–	–	–	–	–	–	–	–	–	–	CN(C)C(=O)c1nccc(Nc2c(NC(c3nc(Cl)ccc3F)C3(C)CC4CC4C3)c(=O)c2=O)c1O (stereo not shown) [compound 085, 4-((2-(((6-chloro-3-fluoropyridin-2-yl)(3-methylbicyclo[3.1.0]hexan-3-yl)methyl)amino)-3,4-dioxocyclobut-1-en-1-yl)amino)-3-hydroxy-N,N-dimethylpicolinamide]
–	324.84	97.61	1846.01	369.92	60.2	739	3780	17.4	444	268	57.6	–	–	–	–	–	CN(C)C(=O)c1nccc(Nc2c(NC(C#CC3CCC3)C3(C)CC(F)(F)CO3)c(=O)c2=O)c1O (stereo not shown) [compound 110]
–	531.62	58.22	≥120	331.52	–	–	–	–	–	–	–	26.9	1550	3900	417	266	CN(C)C(=O)c1nccc(Nc2c(NC(c3nc(F)ccc3F)C3(C)CC4CC4C3)c(=O)c2=O)c1O (stereo not shown) [compound 126, 4-((2-(((3,6-difluoropyridin-2-yl)(3-methylbicyclo[3.1.0]hexan-3-yl)methyl)amino)-3,4-dioxocyclobut-1-en-1-yl)amino)-3-hydroxy-N,N-dimethylpicolinamide]
